This note sets out measurements from publication PMC10609270 (Molecules, 2023).

“Also recorded” adds a separate entry of the source. Where two headings read alike, the source gives them in different places.

The test system of data set [1] is SARS-CoV-2. The data set can be described thus: microbe, parasite or virus in culture. The format is cell-based.
A further data set in a line: in vitro. Conditions: African green monkey.
The test system of data set [2] is ACE2. The data set is classed as cell-based, African green monkey. Conditions: compounds at IC50 (50 μM for 9); for ACE2 levels compared to vehicle: infected Vero CCL-81, Western blot; for ACE2 Levels (Vero CCL-81 Monkey Cells): infected cells. (Immunoblotting shows a protein as a band on a membrane.)
Data set [3] has as its system Vero CCL-81 cells.
The next data set has as its system spike protein. The format is cell-based, SARS-CoV-2.
In data set [4] the test system is ACE2. Nature of the data set: ACE2 expression levels in MDA-MB-231 cells (Western blot). The data set is classed as cell-based, human. As to conditions: 10 μM, 48 h. How it is done:
For protein expression analysis, MDA-MB-231 and Vero CCL-81 cells were seeded in 6-well plates and incubated for 24 h. Then, the cells were treated with the tested compounds at 10 μM or at their respective IC50. Cell pellets were collected after 48 h incubation, and the following lysis, quantification, and Western Blot procedures were performed as previously described, except for the following points: (i) no phosphatase inhibitor was used; (ii) a total of 15 μg of protein lysates obtained from MDA-MB-231 cells treatment or 50 μg of protein lysates obtained from Vero CCL-81 cells were loaded and separated in 10% SDS-Page gels; (iii) the transference to a nitrocellulose membrane (GE Healthcare Life science, Chalfont St Giles, UK; GE10600002) occurred for 1 h 45 min at 100 V; (iv) the primary antibodies (1:2000) used were: mouse anti-ACE2 monoclonal antibody (CL4035; Thermo Fischer Scientific; Waltham, MA, USA) and mouse anti-actin (sc-47778; Santa Cruz Biotechnology, Dallas, TX, USA).

The test system of data set [5] is SARS-CoV-2. The data set is classed as cell-based.
For another data set, the system named is A549 cells. The data set can be described thus: Sulforhodamine B (SRB) cytotoxicity assay in A549 cells. The data set is classed as cell-based, human. As to conditions: for Cytotoxicity in A549 human lung cells: 48 h, SRB, five serial dilutions. How it is done:
(§1) To determine the cytotoxic effect of the tested compounds, the SRB assay was performed according to the previously described protocols. The concentration of each compound that caused 50% of cell growth inhibition (GI50) was determined from the dose response curve. A549 cells were plated in 96-well plates at a previously determined optimal cell concentration (5 × 10^4 cells/mL) and incubated for 24 h. Then, cells were treated with different concentrations of the tested compounds for 48 h. The following procedure was accomplished as previously described. Using the Gen5^TM software (version 1.04.5), the absorbance was measured at 510 nm in a multiplate reader (Synergy^TM Mx, Biotek Instruments Inc., Winooski, VT, USA).
For orientation: Sulforhodamine B stains cellular protein and so reports cell mass.

The test system of data set [6] is Vero CCL-81 cells. The data set can be described thus: cells. The format is cell-based, African green monkey. Conditions: non-infected Vero CCL-81, 48 h; for IC50: Chlorocebus sabaeus, DAPI, read-out: IC50 (ñ inf), relative cell nucleus number.
The nature of data set [7]: Sulforhodamine B (SRB) cytotoxicity assay in A549 cells. The format is cell-based, human. As to conditions: human, A549 cells; SRB assay, 48 h; read-out: Cytotoxic IC50 (A549 Human Lung Cells). How it is done:
as §1

The test system of data set [8] is Vero CCL-81 cells. The data set can be described thus: cells. Conditions: Chlorocebus sabaeus, 48 h, read-out: IC50 (inf), relative cell nucleus number.
Where [9] appears, read: Severe acute respiratory syndrome coronavirus 2, in Primates, 48 h, read-out: Antiviral IC50 (Vero CCL-81 Monkey Cells).
Where [10] appears, read: Homo sapiens, A549, 48 h, read-out: GI50 (concentration that inhibits 50% of cell growth), A549, 48 h, SRB assay.

A word on the IC50: it is the concentration that gives 50% inhibition. For `Cc1ccnc(NS(=O)(=O)c2ccc(NC3c4ccccc4Oc4ccccc43)cc2)n1` [Compound 1], the IC50 stood at 12.6 µM with SARS-CoV-2 [1] (setting [9]), 18.4 µM in the data set “in vitro” and 28.9 µM in the data set with Vero CCL-81 cells [6]. Besides, in the data set with ACE2 [2], the “ACE2 levels compared to vehicle” value is on record as “did not alter ACE2 expression significantly”. Further, the “ACE2 Levels (Vero CCL-81 Monkey Cells)” value in the data set with ACE2 [2] is listed as “−”. Besides, in the data set on Vero CCL-81 cells [3], the “Cytotoxicity in infected Vero CCL-81 cells (number of cell nuclei)” value (shortened to “Cytotoxicity … (number of cell nuclei)”) was “some cytotoxicity”. The “Levels of spike protein compared to vehicle” value with spike protein is “significantly decreased”. The “ACE2 expression levels in MDA-MB-231 cells” value (“ACE2 expression levels” for short) with ACE2 [4] is reported as “did not significantly affect”. Besides, the Viral titer in the data set on SARS-CoV-2 [5] was 1.4 × 10^3 FFU/mL. The “Cytotoxicity in A549 human lung cells” value with A549 cells is on record as “did not exhibited cytotoxicity at the tested concentrations”. For the same molecule, the “GI50 (concentration that inhibits 50% of cell growth)” value in the data set with A549 cells (A549, 48 h, SRB assay) is reported as “not reached with the concentrations tested”.
Consider `Cc1cc(C)nc(NS(=O)(=O)c2ccc(NC3c4ccccc4Oc4ccccc43)cc2)n1` [Compound 2], for which the IC50 in the data set with SARS-CoV-2 [1] (setting [9]) is 11.9 µM; in “in vitro” it was 17.2 µM; with Vero CCL-81 cells [6] it was 19.8 µM. Besides, the “ACE2 levels compared to vehicle” value in the data set on ACE2 [2] is recorded as “did not alter ACE2 expression significantly”. In addition, the “ACE2 Levels (Vero CCL-81 Monkey Cells)” value in the data set with ACE2 [2] was “−”. In addition, in the data set on Vero CCL-81 cells [3], the “Cytotoxicity … (number of cell nuclei)” value is reported as “some cytotoxicity”. Further, the “Levels of spike protein compared to vehicle” value in the data set on spike protein is recorded as “significantly decreased”. Besides, the “ACE2 expression levels” value in the data set with ACE2 [4] was “did not significantly affect”. Besides, the Viral titer in the data set with SARS-CoV-2 [5] is on record as 1.7 × 10^3 FFU/mL. For the same molecule, the IC50 at 48 h in data set [7] is 31.9 µM. Further, the GI50 in the data set with A549 cells (setting [10]) turned out to be 31.9 µM.
`O=C(NC1c2ccccc2Oc2ccccc21)N(O)C1c2ccccc2Oc2ccccc21` [Compound 3]: the “Effect on cell infection by SARS-CoV-2” value in the data set on SARS-CoV-2 [1] is “did not inhibit cell infection”. Moreover, the “Cytotoxicity … (number of cell nuclei)” value with Vero CCL-81 cells [3] was “significantly higher cytotoxicity in infected cells compared to non-infected cells”. In the data set on Vero CCL-81 cells [6], the “Relative cell number of non-infected cells” value is “increased the relative cell number of non-infected cells”.
Consider `C[C@H](CCC(=O)N1CCOCC1)[C@H]1CC[C@H]2[C@@H]3CC[C@@H]4C[C@H](O)CC[C@]4(C)[C@H]3C[C@H](O)[C@]12C` [Compound 4], for which the IC50 in the data set with SARS-CoV-2 [1] (setting [9]) is 24.1 µM. Besides, the “ACE2 levels compared to vehicle” value with ACE2 [2] is on record as “did not alter ACE2 expression significantly”. Moreover, the “ACE2 Levels (Vero CCL-81 Monkey Cells)” value in the data set on ACE2 [2] is reported as “−”. Also, in the data set on spike protein, the “Levels of spike protein compared to vehicle” value is given as “significantly decreased”. For the same molecule, the “ACE2 expression levels” value in the data set on ACE2 [4] is “did not significantly affect”. Besides, in the data set with SARS-CoV-2 [5], the Viral titer is 1.5 × 10^3 FFU/mL. In [7], the IC50 at 48 h is 19.8 µM. For the same molecule, the GI50 in the data set on A549 cells (A549, 48 h, SRB assay, read-out: GI50 (concentration that inhibits 50% of cell growth)) was 19.8 µM; in the data set on A549 cells (setting [10]), 19.8 µM. Moreover, the “Relative cell number of non-infected cells” value with Vero CCL-81 cells [6] is on record as “increased the relative cell number of non-infected cells”.
For the molecule `Nc1cccc2c1CCN(c1ccc3c(=O)c4ccc(N5CCc6c(N)cccc6C5)cc4oc3c1)C2` [Compound 5], the “Effect on cell infection by SARS-CoV-2” value in the data set on SARS-CoV-2 [1] is on record as “did not inhibit cell infection”.
Same read-out and setting: then `O=c1c2ccc(OCc3cn(C4OC(CO)C(O)C(O)C4O)nn3)cc2oc2cc(OCc3cn(C4OC(CO)C(O)C(O)C4O)nn3)ccc12` (stereo not shown) [Compound 6], with “did not inhibit cell infection”.
For `O=c1c2ccc(OCc3cn(C4OC(COS(=O)(=O)O)C(OS(=O)(=O)O)C(OS(=O)(=O)O)C4OS(=O)(=O)O)nn3)cc2oc2cc(OCc3cn(C4OC(COS(=O)(=O)O)C(OS(=O)(=O)O)C(OS(=O)(=O)O)C4OS(=O)(=O)O)nn3)ccc12` (stereo not shown) [Compound 7], the IC50 in the data set with SARS-CoV-2 [1] (setting [9]) turned out to be 31.7 µM. For the same molecule, in the data set with ACE2 [2], the “ACE2 levels compared to vehicle” value is “slight decrease; also recorded: did not alter ACE2 expression significantly” and the “ACE2 Levels (Vero CCL-81 Monkey Cells)” value is recorded as “−”. For the same molecule, in the data set on Vero CCL-81 cells [3], the “Cytotoxicity … (number of cell nuclei)” value was “without causing cytotoxicity”. For the same molecule, the “Levels of spike protein compared to vehicle” value in the data set on spike protein is “did not cause any significant change”. For the same molecule, in the data set with SARS-CoV-2 [5], the “Viral Titer and Spike Levels (Vero CCL-81 Monkey Cells)” value is listed as “−”; the Viral titer is 6.1 × 10^3 FFU/mL. For the same molecule, the “Cytotoxicity in A549 human lung cells” value in the data set on A549 cells is “did not exhibited cytotoxicity at the tested concentrations”. Moreover, the “Relative cell number of non-infected cells” value in the data set on Vero CCL-81 cells [6] is reported as “increased the relative cell number of non-infected cells”.
`O=c1c2ccccc2oc2c(O)c(OC3OC(COS(=O)(=O)O)C(OS(=O)(=O)O)C(OS(=O)(=O)O)C3OS(=O)(=O)O)ccc12` (stereo not shown) [Compound 8]: the “Effect on cell infection by SARS-CoV-2” value with SARS-CoV-2 [1] was “did not inhibit cell infection”.
Take `O=c1c2ccc(OCc3cn(C4OC(COS(=O)(=O)O)C(OS(=O)(=O)O)C(OS(=O)(=O)O)C4OS(=O)(=O)O)nn3)cc2oc2cc(OCc3cn(C4OC(COS(=O)(=O)O)C(OS(=O)(=O)O)C(OS(=O)(=O)O)C4OS(=O)(=O)O)nn3)ccc12` (stereo not shown) [Compound 9]: in the data set on SARS-CoV-2 [1], the “Effect on cell infection by SARS-CoV-2” value was “reduced cell infection” and the “IC50(viral), relative number of infected cells” value was “not reached at the tested concentrations”. Besides, in the data set with ACE2 [2], the “ACE2 levels compared to vehicle” value is on record as “did not alter ACE2 expression significantly” and the “ACE2 Levels (Vero CCL-81 Monkey Cells)” value was “−”. Also, in the data set with Vero CCL-81 cells [3], the “Cytotoxicity … (number of cell nuclei)” value was “without causing cytotoxicity”. The “Levels of spike protein compared to vehicle” value in the data set on spike protein was “did not cause any significant change”. Also, in the data set with SARS-CoV-2 [5], the “Viral Titer and Spike Levels (Vero CCL-81 Monkey Cells)” value is “−”; the Viral titer was 7.0 × 10^3 FFU/mL. Besides, the “Cytotoxicity in A549 human lung cells” value in the data set on A549 cells was “did not exhibited cytotoxicity at the tested concentrations”. Moreover, in the data set with Vero CCL-81 cells [6], the “Relative cell number of non-infected cells” value was “increased the relative cell number of non-infected cells”.
Regarding `O=c1c2ccc(NCc3ccccc3)cc2oc2cc(OS(=O)(=O)C(F)(F)F)ccc12` [Compound 10], in the data set with SARS-CoV-2 [1], the “Effect on cell infection by SARS-CoV-2” value is “did not inhibit cell infection”. For the same molecule, the “Relative cell number of non-infected cells” value with Vero CCL-81 cells [6] was “increased the relative cell number of non-infected cells”.
On to `Cc1ccc(C(=O)Nc2ccc(CN3CCN(C)CC3)c(C(F)(F)F)c2)cc1C#Cc1cnc2cccnn12` [Ponatinib, reference compound], for which the “Effect on cell infection by SARS-CoV-2” value in the data set on SARS-CoV-2 [1] is “did not inhibit cell infection”. The IC50 with SARS-CoV-2 [1] (Severe acute respiratory syndrome coronavirus 2, 48 h, read-out: IC50(viral), relative number of infected cells) came to 0.93 µM; in the data set with Vero CCL-81 cells [8], 0.7 µM; in the data set on Vero CCL-81 cells [6], 1.36 µM. In addition, the “Cytotoxicity … (number of cell nuclei)” value with Vero CCL-81 cells [3] is “some cytotoxicity”.
